Several values for one entry are separate records, joined by “and”; a condition that tells them apart may be missing. Identical values can stand only once.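 Values below derive from 48-hour exposures of cells grown in 96-well plates, with endpoints linearly interpolated between the two concentrations bracketing the appropriate inhibition level. The concentration for 50% growth inhibition is given as GI50. TGI denotes the concentration required for complete inhibition of growth.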
How the values were obtained:
Assay in all cases: NCI-60 cell line screen, 48 h
[1] = test system: UO-31 renal
[2] = test system: SK-MEL-28 melanoma
[3] = test system: RPMI-8226 leukemia
[4] = test system: MDA-MB-231 breast
[5] = test system: SW-620 colon
[6] = test system: OVCAR-8 ovarian
[7] = test system: OVCAR-3 ovarian
[8] = test system: SNB-75 CNS
[9] = test system: SK-MEL-2 melanoma
[10] = test system: MOLT-4 leukemia

Compound | GI50 [1] | TGI [1] | GI50 [2] | TGI [2] | GI50 [3] | TGI [3] | GI50 [4] | TGI [4] | GI50 [5] | TGI [5] | GI50 [6] | TGI [6] | GI50 [7] | TGI [7] | GI50 [8] | TGI [8] | GI50 [9] | TGI [9] | GI50 [10] | TGI [10]
CON=C1C[C@]2(C[C@@H]3C[C@@H](C/C=C(\C)C[C@@H](C)/C=C/C=C4\CO[C@@H]5[C@H](O)C(C)=C[C@@H](C(=O)O3)[C@]45O)O2)O[C@H](/C(C)=C/C(C)C)[C@H]1C | 11.2 µM | 23.3 µM | 17.5 µM | 31.7 µM | 4.23 µM | 53.6 µM | 11.2 µM | 24.9 µM | 11.8 µM | 25.3 µM | 16.3 µM | 39.1 µM | 4.45 µM | 15.8 µM | 18.7 µM | 35.3 µM | 15.4 µM | 32.5 µM | 3.02 µM | 8.53 µM
COc1cccc(CCNC(=O)CC(c2ccccc2)(c2ccccc2)c2ccccc2)c1 | 4.75 µM | > 100 µM | > 100 µM | > 100 µM | 4.98 µM | > 100 µM | > 100 µM | > 100 µM | 85.3 µM | > 100 µM | 4.98 µM | 47.7 µM | 4.77 µM | > 100 µM | > 100 µM | > 100 µM | 4.41 µM | > 100 µM | 6.01 µM | > 100 µM
O=C(/C=C\c1cc(Br)ccc1O)/C=C/c1cc(Br)ccc1O | 0.882 µM | 2.2 µM | 0.555 µM | 1.96 µM | 0.3 µM | 1.4 µM | 0.372 µM | 4.07 µM | 0.379 µM | 1.61 µM | 0.345 µM | 11.6 µM | 0.351 µM | 1.13 µM | 1.34 µM | 2.8 µM | 2.25 µM | 6.15 µM | 0.316 µM | 12 µM
O=C(CN1CCN(CCN2C(=O)c3cccc4cccc(c34)C2=O)CC1)Nc1ccc2ncsc2c1 | 6.21 µM | 30.8 µM | 11 µM | 23.8 µM | 9.39 µM | 38.1 µM | > 100 µM | > 100 µM | 3.19 µM | 19.3 µM | 3.8 µM | 22.9 µM | 7.34 µM | 21.5 µM | 9.44 µM | > 100 µM | 6.49 µM | 23.6 µM | 2.87 µM | 15.3 µM
Cc1ccc(S(=O)(=O)OCC(=O)Nc2ccc(C(=O)O)c(O)c2)cc1 | 45.1 µM | 173 µM | 31.8 µM | 94.5 µM | 138 µM | 346 µM | 25.9 µM | 99.6 µM | 43.7 µM | 145 µM | 30.3 µM | 106 µM | 19.3 µM | 44.5 µM | 47.3 µM | 185 µM | 50.2 µM | 203 µM | 16.5 µM | 87.9 µM
[N-]=[N+]=NCCCn1c2c(c3ccc([N+](=O)[O-])cc3c1=O)C(=O)c1cc(I)ccc1-2 | 3.82 µM | 45.6 µM | 41.5 µM | > 100 µM | 2.17 µM | 59.6 µM | > 100 µM | > 100 µM | 1.72 µM | > 100 µM | 11.3 µM | > 100 µM | 18.3 µM | > 100 µM | 8.63 µM | > 100 µM | 71.2 µM | > 100 µM | 0.833 µM | 5.08 µM
C[C@]12CCCN1CC1=NNC(=O)c3cc(F)cc4[nH]c2c1c34 | 16 µM | > 100 µM | 24.9 µM | 87.2 µM | 19.1 µM | 52.3 µM | 18 µM | 66.5 µM | 16.7 µM | > 100 µM | 19.5 µM | > 100 µM | 17.8 µM | > 100 µM | 13.6 µM | 35.9 µM | 22.3 µM | 52.4 µM | 22.3 µM | > 100 µM
COc1ccc(/C(=C/c2ccc3ccccc3c2)c2nn[nH]n2)cc1OC | 5.59 µM | > 100 µM | 8.07 µM | > 100 µM | 4.02 µM | > 100 µM | 12.5 µM | > 100 µM | 1.36 µM | > 100 µM | 7.1 µM | > 100 µM | 1.69 µM | 7.87 µM | 2.51 µM | > 100 µM | 4.36 µM | > 100 µM | 4.16 µM | > 100 µM
COc1ccc(C2=NN(C=O)C(c3ccc(OS(=O)(=O)c4ccc(C)cc4)c(OC)c3)C2)cc1 (centres undefined) | 3.39 µM | > 100 µM | 10.6 µM | > 100 µM | 4.12 µM | > 100 µM | 5.52 µM | > 100 µM | 5.31 µM | > 100 µM | 10.2 µM | > 100 µM | 5.6 µM | > 100 µM | 3.33 µM | 25.1 µM | 3.52 µM | 38.6 µM | 5.23 µM | > 100 µM
COC(=O)CC1C2(C)C3=C(C)C(c4ccoc4)CC3OC2C2OC(=O)C3(C)C=CC(=O)C1(C)C23 (centres undefined) |  | 2.52 µM |  | 2.66 µM |  | 1.16 µM |  | 2.81 µM |  | 4.39 µM |  | 5.44 µM |  | 7.56 µM |  | 12.3 µM |  | 3.58 µM |  | 1.77 µM
CS(=O)(=O)c1ccc2c(c1)C(=O)c1c-2n(CCCBr)c(=O)c2cc([N+](=O)[O-])ccc12 | 3.12 µM | > 100 µM | > 100 µM | > 100 µM | 1.68 µM | 42.8 µM | 51.1 µM | > 100 µM | 0.683 µM | > 100 µM | 29.3 µM | > 100 µM | 28.8 µM | > 100 µM | 12.8 µM | 42.2 µM | 19.6 µM | 43.8 µM | 1.94 µM | > 100 µM
CC(C)n1nc(C#Cc2cccc(O)c2)c2c(N)ncnc21 | 0.391 µM and 0.416 µM | 1.92 µM and 2.83 µM | 0.657 µM and 0.304 µM | 2.73 µM and 2.36 µM | 1.13 µM and 0.516 µM | 5.78 µM and 6.19 µM | 0.508 µM and 0.0966 µM | 2.07 µM and 2.15 µM | 2.08 µM and 1.72 µM | 50 µM and 31.9 µM | 1.99 µM and 2.41 µM | 30.1 µM and 16.1 µM | 1.32 µM and 1.7 µM | 5.62 µM and 7.63 µM | 0.161 µM and 0.442 µM | 1.12 µM and 2.09 µM | 0.721 µM and 0.751 µM | 2.69 µM and 3.11 µM | 1.2 µM and 0.412 µM | 9.4 µM and 4.7 µM
COc1ccc(N=N/C(=N\NC(=O)c2cc(Br)ccc2O)c2ccc(N(CCC#N)CCC#N)cc2OC)cc1 | 59.5 µg/mL | > 150 µg/mL | > 150 µg/mL | > 150 µg/mL | 74.4 µg/mL | > 150 µg/mL | 70.8 µg/mL | > 150 µg/mL | > 150 µg/mL | > 150 µg/mL | 47.5 µg/mL | > 150 µg/mL | 51.4 µg/mL | > 150 µg/mL | 27.6 µg/mL | 86.8 µg/mL | 95.8 µg/mL | > 150 µg/mL | 52 µg/mL | > 150 µg/mL
Nc1nc(=S)c2ncn(C3OC(CO)C(O)C3O)c2[nH]1 (centres undefined) | 0.77 µM | > 100 µM | 13.7 µM | > 100 µM | 0.322 µM | 2.29 µM | 1.39 µM | > 100 µM | 1.7 µM | > 100 µM | 0.903 µM | > 100 µM | 0.851 µM |  | 0.688 µM | > 100 µM | 10.5 µM | > 100 µM | 0.433 µM | 10.3 µM
O=C(/C=C/c1ccco1)Nc1ncc(Cc2cccc(C(F)(F)F)c2)s1 | 0.166 µM | 5.13 µM | 1.1 µM | > 50.2 µM | 0.291 µM | 10.9 µM | 0.153 µM | 4.8 µM | 0.0422 µM | > 100 µM | 0.138 µM | > 37.7 µM | 0.0386 µM | 0.45 µM | 0.0301 µM | 1.65 µM | 0.0966 µM | 5.28 µM | 0.084 µM | 26 µM
c1ccc(COCC[P+](c2ccccc2)(c2ccccc2)c2ccccc2)cc1 | 4.82 µM | 28.4 µM | 1.59 µM | 12.2 µM | 0.242 µM | 1.9 µM | 2.36 µM | 14.2 µM | 1.83 µM | 37.7 µM | 1.67 µM | 10.8 µM | 1.07 µM | 17.8 µM | 1.44 µM | 6.76 µM | 1.93 µM | 4.96 µM | 2.1 µM | 12.4 µM
O=C(COc1cccc(/C=C2\COc3ccccc3C2=O)c1)c1ccccc1 | 1.77 µM | 3.26 µM | 3.24 µM | 10.7 µM | 1.84 µM | 4.85 µM | 10.6 µM | 22.9 µM | 1.66 µM | 3.83 µM | 3.35 µM | 11.2 µM | 2.39 µM | 5.12 µM | 11.5 µM | 24.7 µM | 2.75 µM | 9.68 µM | 3.26 µM | 11.1 µM
NC(CP(=O)(O)O)C(=O)O (centres undefined) |  | > 100 µM |  | > 100 µM |  | > 100 µM |  | > 100 µM |  | > 100 µM |  | > 100 µM |  | > 100 µM |  | > 100 µM |  | > 100 µM |  | > 100 µM
